Consider three molecules from patent US6440660B1 (priority 1995, dated 2002).

Test [1] has as its system P. falciparum field isolate TM336. Particulars: strain TM336; cited from earlier work.
Test [2] relates to P. falciparum field isolate TM346. The note with it: cited from earlier work.
A further test has as its system P. falciparum W2. Particulars: strain W2; cited from earlier work.
Test [3] relates to P. falciparum field isolate TM335. Particulars: cited from earlier work.
Test [4] has as its system P. falciparum field isolate TM352. The note with it: strain TM352; cited from earlier work.
Test [5] deals with P. falciparum field isolate PR145. Particulars: cited from earlier work.
For test [6], the system named is W2mef parasites (resistant to mefloquine). The test can be described thus: Mefloquine resistance reversal study, W2mef (FIGS. 2, 3, 5). The note with it: mefloquine alone without oligonucleotide, below threshold mefloquine concentration. In kind it is cell-based, P. falciparum.
A further test deals with P. falciparum W2mef. The note with it: strain W2mef; cited from earlier work.

As usually defined, the IC50 is the concentration at which inhibition is half-maximal.

In brackets after ≈: the same amount, converted by molar mass.

`CCCCN(CCCC)CCC(O)c1cc2c(Cl)cc(Cl)cc2c2cc(C(F)(F)F)ccc12` (stereo not shown) [halofantrine]: the IC50 in test [1] was 2.8 ng/mL (≈ 0.0056 µM); in test [2] it was 3.7 ng/mL (≈ 0.00739 µM); with P. falciparum W2, 0.3 ng/mL (≈ 0.000599 µM); in test [3] it was 0.61 ng/mL (≈ 0.00122 µM); in test [4], 3.0 ng/mL (≈ 0.00599 µM); in test [5], 2.0 ng/mL (≈ 0.004 µM).

Take `OC(c1cc(C(F)(F)F)nc2c(C(F)(F)F)cccc12)C1CCCCN1` (stereo not shown) [mefloquine]: the “3H-hypoxanthine incorporated on average” value in test [6] is 11,000 cpm. Besides, the half-maximal inhibitory concentration (IC50) in test [1] was 15 ng/mL (≈ 0.0396 µM); in test [2] it was 20 ng/mL (≈ 0.0529 µM); in the test with P. falciparum W2mef, 16 ng/mL (≈ 0.0423 µM); with P. falciparum W2, 2 ng/mL (≈ 0.00529 µM); in test [3] it was 6 ng/mL (≈ 0.0159 µM); in test [4] it was 22 ng/mL (≈ 0.0582 µM). The IC50 in test [5] is 10 ng/mL (≈ 0.0264 µM).

For the molecule `C=C[C@H]1C[N@@]2CC[C@H]1C[C@H]2[C@H](O)c1ccnc2ccc(OC)cc12` [quinine], the IC50 is 87 ng/mL (≈ 0.268 µM) in test [1]; 74 ng/mL (≈ 0.228 µM) in the test with P. falciparum W2; 65 ng/mL (≈ 0.2 µM) in test [3]; 1.2 ng/mL (≈ 0.0037 µM) in test [4]; 90 ng/mL (≈ 0.277 µM) in test [5].
